Measured values: ChEMBL document CHEMBL4385663, “Discovery of novel PTHR1 antagonists: Design, synthesis, and structure activity relationships” (Bioorg Med Chem Lett, 2019)
pIC50: −log10 of the molar value. ≈ marks a conversion by molar mass, not a printed value.

Key:
[1] = target: T1, Parathyroid hormone/parathyroid hormone-related peptide receptor (Homo sapiens, UniProt Q03431)
T1 sequence (Q03431 whole entry): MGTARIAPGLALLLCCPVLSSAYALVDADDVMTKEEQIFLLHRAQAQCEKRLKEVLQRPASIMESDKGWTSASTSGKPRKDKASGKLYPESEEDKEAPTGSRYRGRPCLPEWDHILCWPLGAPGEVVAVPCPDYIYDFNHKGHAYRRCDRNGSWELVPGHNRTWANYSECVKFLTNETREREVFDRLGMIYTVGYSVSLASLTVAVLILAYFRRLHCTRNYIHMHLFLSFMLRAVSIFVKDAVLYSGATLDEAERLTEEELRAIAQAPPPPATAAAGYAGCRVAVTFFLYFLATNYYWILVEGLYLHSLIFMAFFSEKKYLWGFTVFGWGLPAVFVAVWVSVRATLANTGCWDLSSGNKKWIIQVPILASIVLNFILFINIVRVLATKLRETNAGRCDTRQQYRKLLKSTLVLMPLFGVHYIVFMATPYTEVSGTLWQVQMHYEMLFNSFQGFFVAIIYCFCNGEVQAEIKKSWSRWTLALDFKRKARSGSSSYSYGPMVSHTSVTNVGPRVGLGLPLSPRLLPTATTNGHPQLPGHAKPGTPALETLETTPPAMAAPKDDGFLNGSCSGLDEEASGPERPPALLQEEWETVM
Description: Antagonist activity at human PTHR1 expressed in CHOK1 cells co-expressing Gs/Gq assessed as reduction in human PTH (1 to 34 residues)-induced cAMP accumulation incubated for 30 mins by HTRF assay

physchem = settings: 1-octanol/phosphate buffered saline, pH 7.4
Description: Distribution coefficient, log D of the compound in 1-octanol and phosphate buffered saline at pH 7.4

[2] = Solubility of the compound in JP2 buffer at pH 6.8; format: physicochemical
[3] = Half life in Sprague-Dawley rat at 10 mg/kg, po; format: ADME, organism-based; settings: in vivo
[4] = Clearance in Sprague-Dawley rat at 1 mg/kg, iv; format: ADME, organism-based; settings: in vivo
in vitro = settings: rat, liver microsomes
Description: Metabolic stability in rat liver microsomes assessed as parent compound remaining after 0.5 hrs

[5] = Protein binding in rat plasma assessed as unbound fraction; format: ADME, cell-free
[6] = AUClast in Sprague-Dawley rat at 10 mg/kg, po; format: ADME, organism-based; set-up: dose 10 mg/kg, time 0 - last, route oral; settings: in vivo
[7] = Volume of distribution in Sprague-Dawley rat at 1 mg/kg, iv; format: ADME, organism-based; settings: in vivo
[8] = Solubility of the compound in JP1 buffer at pH 1.2; format: physicochemical
[9] = Oral bioavailability in Sprague-Dawley rat at 10 mg/kg; format: ADME, organism-based; settings: in vivo

CC(C)C1(C)N=C(C2CCCCC2)c2ccc(Cl)cc2N(c2ccc(NCCN)cc2)C1=O (stereo not drawn)
pIC50 [1]: 5.17

NCCNc1ccc(N2C(=O)CN(C3CCCCC3)C(=O)c3ccc(Cl)cc32)cc1
pIC50 [1]: < 4.00

CC1(C)N=C(C2CCCCC2)c2ccc(C#N)cc2N(c2ccc(CCCN)cc2)C1=O
pIC50 [1]: 5.12

Cc1ccc2c(c1)N(c1ccc(NCCN)cc1)C(=O)C(C)(C)N=C2C1CCCCC1
pIC50 [1]: 5.21

NCCNc1ccc(N2C(=O)CN(C3CCCCC3)Cc3ccc(Cl)cc32)cc1
logD (physchem): 1.4 | pIC50 [1]: < 4.00

CC1(C)N=C(C2CCCCC2)c2ccc(C#N)cc2N(c2ccc(NCCNC3CCOCC3)cc2)C1=O
solubility [2]: 500 µg/mL (≈ 973 µM) | half-life [3]: 4.23 h | clearance [4]: 46.8 mL/min/kg | remaining at 0.5 h (in vitro): 28% | fraction unbound [5]: 0.029 | AUC(0-t) [6]: 1940 ng·h/mL | Vd [7]: 4.7 L/kg | solubility [8]: 760 µg/mL (≈ 1480 µM) | logD (physchem): 2.9 | bioavailability [9]: 27% | pIC50 [1]: 7.05

CC(C)N1N=C(C2CCCCC2)c2ccc(Cl)cc2N(c2ccc(CC3=NCCN3)cc2)C1=O
logD (physchem): 4.2 | pIC50 [1]: 5.03

COc1ccc2c(c1)N(c1ccc(NCCN)cc1)C(=O)C(C)(C)N=C2C1CCCCC1
pIC50 [1]: 4.85

CC(C)C1N=C(C2CCCCC2)c2ccc(Cl)cc2N(c2ccc(NCCN)cc2)C1=O (stereo not drawn)
pIC50 [1]: 4.85

CC1(C)N=C(C2CCCCC2)c2ccc(C#N)cc2N(c2ccc(NCCN)cc2)C1=O
logD (physchem): 2.1 | pIC50 [1]: 6.14

CC1(C)N=C(C2CCCCC2)c2ccc(C#N)cc2N(c2ccc(NCCNC3CCCCC3)cc2)C1=O
pIC50 [1]: 5.64

CN(C)C1N=C(C2CCCCC2)c2ccc(Cl)cc2N(c2ccc(NCCN)cc2)C1=O (stereo not drawn)
pIC50 [1]: 4.36

NCCNc1ccc(N2C(=O)CN=C(C3CCCCC3)c3ccc(Cl)cc32)cc1
logD (physchem): 1.7 | pIC50 [1]: 4.42

CC1(C)N=C(C2CCCCC2)c2ccc(C#N)cc2N(c2ccc(OCCN)cc2)C1=O
pIC50 [1]: 5.40

CC1(C)N=C(c2ccccc2)c2ccc(Cl)cc2N(c2ccc(NCCN)cc2)C1=O
pIC50 [1]: 4.35

CC(C)CC1=NC(C)(C)C(=O)N(c2ccc(NCCN)cc2)c2cc(Cl)ccc21
pIC50 [1]: 4.64

CC1(C)N=C(C2CCCCC2)c2ccc(C#N)cc2N(c2ccc(NCCNC3CCN(S(C)(=O)=O)CC3)cc2)C1=O
pIC50 [1]: 6.74

CC1(C)N=C(C2CCCCC2)c2ccc(C#N)cc2N(c2ccc(NCCCN)cc2)C1=O
pIC50 [1]: 5.39

CC1(C2=NC(C)(C)C(=O)N(c3ccc(NCCN)cc3)c3cc(Cl)ccc32)CCCCC1
pIC50 [1]: 4.80
